Calls of active or inactive are those of the source. The rule behind the calls is not given here.
Tests used:
A2780 [1] = experiment: Antiproliferative activity against human A2780 cells assessed as cell viability at 50 uM incubated for 72 hrs by CCK8 assay; format: functional; settings: read-out: Activity
A2780 [2] = experiment: Induction of apoptosis in human A2780 cells assessed as increase in cleaved caspase-3 level at IC50 concentration incubated for 72 hrs by immunoblotting analysis; format: functional, cell-based
A2780 [3] = experiment: Downregulation of Oct4 expression in human A2780 cells at IC50 concentration; format: functional, cell-based
A2780 [4] = experiment: Reduction in IDO1 level in human A2780 cells at IC50 concentration incubated for 72 hrs by immunoblotting analysis; format: functional, cell-based
A2780 [5] = experiment: Induction of apoptosis in human A2780 cells assessed as increase in mature AIF expression at IC50 concentration incubated for 72 hrs by immunoblotting analysis; format: functional, cell-based
A2780 [6] = experiment: Induction of apoptosis in human A2780 cells assessed as increase in cleaved caspase-8 level at IC50 concentration incubated for 72 hrs by immunoblotting analysis; format: functional, cell-based
A2780 [7] = experiment: Antiproliferative activity against human A2780 cells assessed as cell viability incubated for 72 hrs by CCK8 assay; format: functional, cell-based; settings: A2780, 72 h
A2780 [8] = experiment: Inhibition of tumor sphere formation in human A2780 cells at IC50 concentration; format: functional, cell-based
[9] = Cytotoxicity against non-cancerous fallopian tube ovarian cell (unknown origin); format: toxicity, cell-based; settings: non-cancerous fallopian tube ovarian cells
A2780 [10] = experiment: Downregulation of CD133 expression in human A2780 cells at IC50 concentration; format: functional, cell-based
A2780 [11] = experiment: Downregulation of Sox2 expression in human A2780 cells at IC50 concentration; format: functional, cell-based
A2780 [12] = experiment: Induction of apoptosis in human A2780 cells assessed as increase in cleaved caspase-9 level at IC50 concentration incubated for 72 hrs by immunoblotting analysis; format: functional, cell-based
[13] = Cytotoxicity against HK-2 cells; format: toxicity, cell-based; settings: human
A2780 [14] = experiment: Induction of apoptosis in human A2780 cells assessed as increase in cytochrome C release at IC50 concentration incubated for 72 hrs by immunoblotting analysis; format: functional, cell-based
A2780 [15] = experiment: Downregulation of Nanog expression in human A2780 cells at IC50 concentration; format: functional, cell-based
A2780 [16] = experiment: Reduction in PD-L1 expression in human A2780 cells at IC50 concentration incubated for 72 hrs by immunoblotting analysis; format: functional, cell-based
A2780 [17] = experiment: Induction of apoptosis in human A2780 cells assessed as increase in cleaved PARP level at IC50 concentration incubated for 72 hrs by immunoblotting analysis; format: functional, cell-based
A2780 [18] = experiment: Inhibition of tumor sphere formation in human A2780 cells assessed as reduction in diameter of the sphere at IC50 concentration (Rvb > 200 micrometer); format: functional
A2780 [19] = experiment: Cytotoxicity against cisplatin resistant human A2780 cells assessed as reduction in cell viability at IC50 concentration incubated for 72 hrs in presence of cisplatin by CCK-8 method; format: functional, cell-based

Row | IC50 (A2780 [7]) | Compound | viability at 50 µM (A2780 [1]) | Activity (A2780 [2]) | Activity (A2780 [3]) | Activity (A2780 [4]) | Activity (A2780 [5]) | Activity (A2780 [6]) | inhibition (A2780 [8]) | IC50 [9] | Activity (A2780 [10]) | Activity (A2780 [11]) | Activity (A2780 [12]) | IC50 [13] | Activity (A2780 [14]) | Activity (A2780 [15]) | Activity (A2780 [16]) | Activity (A2780 [17]) | Activity (A2780 [18]) | Activity (A2780 [19])
1 | 22.6 µM | O=C(Nc1ccccc1Cl)C1CCN(c2ncnc3ccccc23)CC1 | 30% | Active | Active | Active | Active | Active | Active | > 50 µM | Active | Active | Active | > 50 µM | Active | Active | Active | Active | – | –
2 | 4.95 µM | O=C(Nc1ccc([N+](=O)[O-])cc1)C1CCN(c2ncnc3ccccc23)CC1 | 33% | Active | – | Active | Active | – | Active | > 50 µM | Active | inactive | – | > 50 µM | Active | Active | Active | Active | – | –
3 | 10.8 µM | O=C(Nc1ccc(Br)cc1)C1CCN(c2ncnc3ccccc23)CC1 | 28% | – | Active | Active | Active | Active | Active | > 50 µM | Active | Active | – | > 50 µM | – | Active | Active | – | – | –
4 | 9.91 µM | COc1ccc(NC(=O)C2CCN(c3ncnc4ccccc34)CC2)cc1 | 27% | Active | – | Active | Active | – | – | > 50 µM | Active | inactive | – | > 50 µM | Active | Active | Active | Active | <200 um | –
5 | 14.9 µM | Nc1nonc1C(=NO)Nc1ccc(F)c(Cl)c1 | – | – | – | – | – | – | – | 18.4 µM | – | – | – | 30.8 µM | – | – | – | – | – | –
6 | 12.2 µM | O=C(Nc1cccc(Cl)c1)C1CCN(c2ncnc3ccccc23)CC1 | 22% | Active | Active | Active | – | Active | Active | > 50 µM | Active | Active | Active | > 50 µM | Active | Active | Active | Active | – | –
7 | 5.68 µM | O=C(Nc1ccc(Cl)cc1)C1CCN(c2ncnc3ccccc23)CC1 | 26% | Active | Active | Active | – | Active | Active | > 50 µM | Active | Active | – | > 50 µM | Active | Active | Active | Active | – | Active
8 | > 50 µM | O=C(Nc1ccccc1)C1CCN(c2ncnc3ccccc23)CC1 | 42% | – | – | – | – | – | – | > 50 µM | – | – | – | > 50 µM | – | – | – | – | – | –

Second part, the compound before the results:

Row | Compound | IC50 (A2780 [7]) | viability at 50 µM (A2780 [1]) | Activity (A2780 [2]) | Activity (A2780 [3]) | Activity (A2780 [4]) | Activity (A2780 [5]) | Activity (A2780 [6]) | inhibition (A2780 [8]) | IC50 [9] | Activity (A2780 [10]) | Activity (A2780 [11]) | Activity (A2780 [12]) | IC50 [13] | Activity (A2780 [14]) | Activity (A2780 [15]) | Activity (A2780 [16]) | Activity (A2780 [17]) | Activity (A2780 [18]) | Activity (A2780 [19])
9 | O=C(Nc1cccc2c1OCCO2)C1CCN(c2ncnc3ccccc23)CC1 | – | 64% | – | – | – | – | – | – | – | – | – | – | – | – | – | – | – | – | –
10 | O=C(Nc1ccc(F)cc1)C1CCN(c2ncnc3ccccc23)CC1 | – | 68% | – | – | – | – | – | – | – | – | – | – | – | – | – | – | – | – | –
11 | COc1ccc(NC(=O)C2CCN(c3ncnc4ccccc34)CC2)c(OC)c1 | – | 60% | – | – | – | – | – | – | – | – | – | – | – | – | – | – | – | – | –
12 | O=C(Nc1ccc(F)c(Cl)c1)C1CCN(c2ncnc3ccccc23)CC1 | – | 53% | – | – | – | – | – | – | – | – | – | – | – | – | – | – | – | – | –
13 | O=C(Nc1cccc(F)c1)C1CCN(c2ncnc3ccccc23)CC1 | – | 58% | – | – | – | – | – | – | – | – | – | – | – | – | – | – | – | – | –
14 | O=C(Nc1ccc(I)cc1F)C1CCN(c2ncnc3ccccc23)CC1 | – | 76% | – | – | – | – | – | – | – | – | – | – | – | – | – | – | – | – | –
15 | O=C(Nc1ccccc1F)C1CCN(c2ncnc3ccccc23)CC1 | – | 52% | – | – | – | – | – | – | – | – | – | – | – | – | – | – | – | – | –
